Test results from article PMC10064984, “Anti-cyclooxygenase, anti-glycation, and anti-skin aging effect of Dendrobium officinale flowers’ aqueous extract and its phytochemical validation in aging” (Frontiers in Immunology, 2023).
Where “and” joins values, the source holds several entries; their conditions need not be identical. Equal values may be shown once. Read-outs that look alike come from different tables or passages of the source.

Experiments:
Assay type in all cases: biochemical
[1] = ABTS·+ decolourisation capacity; settings: for ABTS scavenging rate: 0.5mM series, replicate wells, listed as T19; for IC50: mean ± SD, n = 3
Method: Fast colourimetric methods were slightly modified for the in vitro assessment of DPPH· scavenging ([19]), ABTS·+ decolourisation capacity ([20]), and total antioxidant capacity of FRAP ([21]). The stock solutions of derivatisation reagents were diluted as follows before measurement: DPPH was diluted with absolute ethanol until the absorbance was 0.8 ± 0.05 at λ = 517 nm. ABTS working solution was prepared with phosphate buffer (0.2 M, pH 7.4) to display absorbance of 0.8 ± 0.05 at λ = 729 nm, based on a previous study ([22]). The FRAP solution was prepared according to the instructions of the FRAP kit. Absorbances were measured using an automatic microplate reader (Molecular Group Ltd., USA), and all analyses were performed using 96-well plates. All measurements were performed in triplicate, and Trolox was used as a positive control.
For ABTS·+ decolourisation capacity, 100 μl of ABTS working solution was mixed with 200 μl of sample solution, and the absorbance was recorded after 10 min at 729 nm. Phosphate buffer (0.2 M, pH 7.4) was used as a negative control.
DPPH· and ABTS·+ radical scavenging activities of the tested sample were both calculated using the following formula:
% inhibition = (A control − A sample)/A control × 100
Where A control and A sample represent the absorbance of the control and test samples, respectively. The IC50 was calculated graphically from the dose-inhibition curves.

[2] = FRAP total antioxidant capacity; settings: lower part of sheet (compound series);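 also: colourimetric FRAP kit assay read as absorbance in 96-well plates, values as mM FeSO4 via standard curve, EC1 being sample concentration matching 1.0 mmol/L FeSO4, Trolox positive control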
COX-2 = target: T1, COX-2 (Homo sapiens, UniProt P35354); assay: Anti-COX-2 assay (COX-2 Inhibitor Screening Kit)
T1 construct: purchased Beyotime S0168
T1 sequence (P35354 18-604): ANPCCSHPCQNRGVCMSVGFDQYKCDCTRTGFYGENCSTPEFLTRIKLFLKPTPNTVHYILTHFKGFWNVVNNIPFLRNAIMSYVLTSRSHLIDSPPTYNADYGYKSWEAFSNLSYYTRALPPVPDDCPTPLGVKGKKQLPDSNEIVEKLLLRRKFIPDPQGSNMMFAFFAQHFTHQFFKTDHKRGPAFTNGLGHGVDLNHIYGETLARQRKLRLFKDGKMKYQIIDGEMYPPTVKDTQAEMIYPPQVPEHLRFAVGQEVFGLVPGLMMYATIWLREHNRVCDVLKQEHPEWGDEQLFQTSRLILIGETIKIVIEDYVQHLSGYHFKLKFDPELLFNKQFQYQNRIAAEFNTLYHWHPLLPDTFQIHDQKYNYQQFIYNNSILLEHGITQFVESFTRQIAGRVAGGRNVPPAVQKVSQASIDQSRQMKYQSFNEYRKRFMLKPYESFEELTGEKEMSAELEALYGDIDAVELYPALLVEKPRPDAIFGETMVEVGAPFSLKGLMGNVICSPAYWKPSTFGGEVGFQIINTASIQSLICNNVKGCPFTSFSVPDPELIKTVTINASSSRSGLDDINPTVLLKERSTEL

[3] = Fluorescent AGEs formation in a BSA-fructose/glucose system; settings: for IC50: mean ± SD, n = 3, read-out: BSA-glycation IC50; for inhibition of fluorescent AGEs formation (BSA-抗糖化), single replicate: individual replicate; for inhibition of fluorescent AGEs formation (BSA-抗糖化), 平均 (mean): mean of 3 replicates
Method: Glycated protein was prepared in vitro by incubating BSA in the presence of D-glucose (GLC) and D-fructose (FRC). The DOF extract and specific standards were dissolved in DMSO:water (1:4). […] The assay was performed in triplicate, and AG was used as a positive control. The percentage inhibition of fluorescent AGE formation was calculated using the following equation: […] Where IF sample is fluorescence intensity in the presence of samples and BSA, IF sample control is fluorescence intensity in the presence of samples without BSA, IF control is fluorescence intensity without samples, and IF blank control is fluorescence intensity without samples and BSA.

DPPH· scavenging = settings: mean ± SD, n = 3

With `O=c1cc(-c2ccc(O)c(O)c2)oc2c(C3OCC(O)C(O)C3O)c(O)c(C3OC(CO)C(O)C(O)C3O)c(O)c12` [compound 15, Luteolin-6-C-β-D-glucoside-8-C-β-D-xyloside] the ABTS scavenging rate ([1]; concentration 7.8125 (unit not given)) was 33.84% and 32.82% and 31.57%, the ABTS scavenging rate ([1]; concentration 15.625 (unit not given)) was 51.02% and 51.43% and 45.77% and the ABTS scavenging rate ([1]; concentration 31.25 (unit not given)) was 80.79% and 81.13% and 77.35%. The ABTS scavenging rate ([1]; concentration 62.5 (unit not given)) was 99.45% and 99.39% and 98.61%, the ABTS scavenging rate ([1]; concentration 125 (unit not given)) was 99.58% and 99.48% and 99.50% and the ABTS scavenging rate ([1]; concentration 250 (unit not given)) was 99.61% and 99.60% and 99.48%. For the same compound, the ABTS scavenging rate ([1]; concentration 500 (unit not given)) was 99.69% (2×) and 99.56%, the IC50 [1] was 13.8 ± 0.82 µM and the “FRAP EC1” value [2] was 1100.3 ± 138.4 µM. The “COX-2 inhibition (in words)” value (COX-2) was “great COX-2 inhibition”, the inhibition at 3.125 µM (COX-2; 3.125 μM, single replicates) was 14.6% and the COX-2 inhibition (COX-2; 3.125 μM, single replicates, listed as T19, 3.125 µM) was 14.16% and 11.51%. The inhibition at 6.25 µM (COX-2; 6.25 μM, single replicates) was 39.3%, the COX-2 inhibition (COX-2; 6.25 μM, single replicates, listed as T19, 6.25 µM) was 23.77% and 25.81% and the inhibition at 12.5 µM (COX-2; 12.5 μM, single replicates) was 60.5%. The COX-2 inhibition (COX-2; 12.5 μM, single replicates, listed as T19, 12.5 µM) was 53.05% and 54.30%, the inhibition at 25 µM (COX-2; 25 μM, single replicates) was 71.9% and the COX-2 inhibition (COX-2; 25 μM, single replicates, listed as T19, 25 µM) was 68.96% and 71.63%. For the same compound, the inhibition at 50 µM (COX-2; 50 μM, single replicates) was 75.8%, the COX-2 inhibition (COX-2; 50 μM, single replicates, listed as T19, 50 µM) was 74.58% and 74.45% and the inhibition at 100 µM (COX-2; 100 μM, single replicates) was 83.1%. The COX-2 inhibition (COX-2; 100 μM, single replicates, listed as T19, 100 µM) was 75.76% and 77.02%, the inhibition at 200 µM (COX-2; 200 μM, single replicates) was 80.8% and the COX-2 inhibition (COX-2; 200 μM, single replicates, listed as T19, 200 µM) was 78.95% and 81.08%. The IC50 (COX-2; mean ± SD, n = 3, nd, not detected, read-out: COX-2 IC50) was 13.9 ± 2.4 µM, the IC50 (COX-2; supplement sheet COX, read-out: COX-2 IC50, single replicate) was 11.2 µM and 15.8 µM and 14.8 µM and the IC50 [3] was 294 ± 13.3 µM. It also gave an IC50 (DPPH· scavenging) of 145 ± 51.4 µM.

In the case of Kaempferol-3-O-rutinoside [compound 28], the IC50 [1] is reported as 35.01 ± 0.22 µM, the “FRAP EC1” value [2] is reported as greater than 5000 µM and the “COX-2 inhibition (in words)” value (COX-2) is reported as “no inhibitory effects”. The COX-2 inhibition (COX-2; 3.125 μM, single replicates, listed as T12, 3.125 µM) was 24.76% and 3.80%, the COX-2 inhibition (COX-2; 6.25 μM, single replicates, listed as T12, 6.25 µM) was 9.88% and 6.40% and 22.14% and the COX-2 inhibition (COX-2; 12.5 μM, single replicates, listed as T12, 12.5 µM) was -1.05% and 3.59% and 13.88%. The COX-2 inhibition (COX-2; 25 μM, single replicates, listed as T12, 25 µM) was -5.04% and -8.91% and 26.95%, the COX-2 inhibition (COX-2; 50 μM, single replicates, listed as T12, 50 µM) was -2.18% and -5.56% and 1.52% and the COX-2 inhibition (COX-2; 100 μM, single replicates, listed as T12, 100 µM) was 7.51% and -46.40% and 2.25%. The COX-2 inhibition (COX-2; 200 μM, single replicates, listed as T12, 200 µM) was -9.13% and -25.75% and 1.42%, the “inhibition of fluorescent AGEs formation (BSA-抗糖化), single replicate” value (shortened to “inhibition … single replicate”) ([3]; 15.625 µM, listed as T12, 15.625 µM) was -0.31% and 7.28% and -2.72% and the “inhibition of fluorescent AGEs formation (BSA-抗糖化), 平均 (mean)” value (“inhibition … (mean)” for short) ([3]; 15.625 µM) was 1.41%. The “inhibition … single replicate” value ([3]; 31.25 µM, listed as T12, 31.25 µM) was 6.95% and 5.50% and 2.44%, the “inhibition … (mean)” value ([3]; 31.25 µM) was 4.96% and the “inhibition … single replicate” value ([3]; 62.5 µM, listed as T12, 62.5 µM) was 13.47% and 13.89% and 14.50%. The “inhibition … (mean)” value ([3]; 62.5 µM) was 13.95%, the “inhibition … single replicate” value ([3]; 125 µM, listed as T12, 125 µM) was 22.45% and 28.29% and 22.60% and the “inhibition … (mean)” value ([3]; 125 µM) was 24.45%. The “inhibition … single replicate” value ([3]; 250 µM, listed as T12, 250 µM) was 38.13% and 38.77% and 37.66%, the “inhibition … (mean)” value ([3]; 250 µM) was 38.19% and the “inhibition … single replicate” value ([3]; 500 µM, listed as T12, 500 µM) was 58.09% and 57.21% and 56.73%. The “inhibition … (mean)” value ([3]; 500 µM) was 57.34%, the “inhibition … single replicate” value ([3]; 1000 µM, listed as T12, 1000 µM) was 74.99% and 76.95% and 73.93% and the “inhibition … (mean)” value ([3]; 1000 µM) was 75.29%. The “inhibition … single replicate” value ([3]; 2000 µM, listed as T12, 2000 µM) was 85.90% and 86.14% and 85.80%, the “inhibition … (mean)” value ([3]; 2000 µM) was 85.95% and the “inhibition … single replicate” value ([3]; 4000 µM (series head 'T9 4000µM', 2-fold dilutions), listed as T12) was 92.80% and 92.79% and 92.84%. The “inhibition … (mean)” value ([3]; 4000 µM) was 92.81%, the IC50 [3] was 374 ± 18.1 µM and the IC50 (DPPH· scavenging) was greater than 5000 µM.
